Test results taken from PubChem BioAssay AID2060897 (Molecular Pharmacology Branch, DTP, NCI, 2025).

System: 966289-007-R4-J1-PDC complex spheroid viability
Assay: Anticancer human tumor 966289-007-R4-J1-PDC patient-derived pancreatic adenocarcinoma cell line growth inhibition [RAS]
Details: for IC50: curve of first compound; for viability, T/C: stronger effect = lower value
How it was run: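 Agents were tested in combination matrices in half-log decrements from a top concentration at or near clinical Cmax (10 microM if undetermined). Targets were multi-cell spheroids of tumour lines plus HUVEC and MSC stromal cells.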

[1] = second compound 0.000949 µM, first compound 0.0316 µM
[2] = second compound 0.000949 µM, first compound 0.1 µM
[3] = second compound 0.000949 µM, first compound 0.316 µM
[4] = second compound 0.000949 µM, first compound 1 µM
[5] = second compound 0.003 µM, first compound 0.0316 µM
[6] = second compound 0.003 µM, first compound 0.1 µM
[7] = second compound 0.003 µM, first compound 0.316 µM
[8] = second compound 0.003 µM, first compound 1 µM
[9] = second compound 0.00949 µM, first compound 0.0316 µM
[10] = second compound 0.00949 µM, first compound 0.1 µM
[11] = second compound 0.00949 µM, first compound 0.316 µM
[12] = second compound 0.00949 µM, first compound 1 µM
[13] = second compound 0.03 µM, first compound 0.0316 µM
[14] = second compound 0.03 µM, first compound 0.1 µM
[15] = second compound 0.03 µM, first compound 0.316 µM
[16] = second compound 0.03 µM, first compound 1 µM
[17] = second compound 0.0949 µM, first compound 0.0316 µM
[18] = second compound 0.0949 µM, first compound 0.1 µM
[19] = second compound 0.0949 µM, first compound 0.316 µM
[20] = second compound 0.0949 µM, first compound 1 µM
[21] = second compound 0.3 µM, first compound 0.0316 µM
[22] = second compound 0.3 µM, first compound 0.1 µM
[23] = second compound 0.3 µM, first compound 0.316 µM
[24] = second compound 0.3 µM, first compound 1 µM
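Further: spheroids exposed to agents for one week before readout.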
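Wherever viability, T/C is given: percent viability relative to DMSO vehicle control wells as 100%.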

CC(C)NCC(C(=O)N1CCN(c2ncnc3c2C(C)CC3O)CC1)c1ccc(Cl)cc1 (centres undefined) + CCn1c(-c2cc(N3CCN(C)CC3)cnc2C(C)OC)c2c3cc(ccc31)-c1csc(n1)CC(NC(=O)C1CC1C)C(=O)N1CCCC(N1)C(=O)OCC(C)(C)C2
IC50 (second compound 0.000949 µM): 5850 nM
IC50 (second compound 0.003 µM): 4530 nM
IC50 (second compound 0.00949 µM): 5060 nM
IC50 (second compound 0.03 µM): 4790 nM
IC50 (second compound 0.0949 µM): 2990 nM
IC50 (second compound 0.3 µM): 4070 nM
viability, T/C [1]: 115%
viability, T/C [2]: 76.5%
viability, T/C [3]: 119%
viability, T/C [4]: 83.1%
viability, T/C (second compound 0.000949 µM, first compound 3.16 µM): 68.4%
viability, T/C (second compound 0.000949 µM, first compound 10 µM): 35.2%
viability, T/C [5]: 106%
viability, T/C [6]: 92.5%
viability, T/C [7]: 91.8%
viability, T/C [8]: 95.3%
viability, T/C (second compound 0.003 µM, first compound 3.16 µM): 58.1%
viability, T/C (second compound 0.003 µM, first compound 10 µM): 32.2%
viability, T/C [9]: 85.5%
viability, T/C [10]: 98.6%
viability, T/C [11]: 103%
viability, T/C [12]: 97.2%
viability, T/C (second compound 0.00949 µM, first compound 3.16 µM): 61.3%
viability, T/C (second compound 0.00949 µM, first compound 10 µM): 33.6%
viability, T/C [13]: 75.1%
viability, T/C [14]: 97.4%
viability, T/C [15]: 99.2%
viability, T/C [16]: 97.6%
viability, T/C (second compound 0.03 µM, first compound 3.16 µM): 61.6%
viability, T/C (second compound 0.03 µM, first compound 10 µM): 29.4%
viability, T/C [17]: 77.1%
viability, T/C [18]: 90.7%
viability, T/C [19]: 113%
viability, T/C [20]: 92.7%
viability, T/C (second compound 0.0949 µM, first compound 3.16 µM): 47.9%
viability, T/C (second compound 0.0949 µM, first compound 10 µM): 27.3%
viability, T/C [21]: 83.7%
viability, T/C [22]: 102%
viability, T/C [23]: 112%
viability, T/C [24]: 98.3%
viability, T/C (second compound 0.3 µM, first compound 3.16 µM): 57.4%
viability, T/C (second compound 0.3 µM, first compound 10 µM): 23.8%

O=C(c1ccc(F)c(F)c1Nc1ccc(I)cc1F)N1CC(O)([C@@H]2CCCCN2)C1 + CCn1c(-c2cc(N3CCN(C)CC3)cnc2C(C)OC)c2c3cc(ccc31)-c1csc(n1)CC(NC(=O)C1CC1C)C(=O)N1CCCC(N1)C(=O)OCC(C)(C)C2
IC50 (second compound 0.000949 µM): 641 nM
IC50 (second compound 0.003 µM): 596 nM
IC50 (second compound 0.00949 µM): 228 nM
IC50 (second compound 0.03 µM): 124 nM
IC50 (second compound 0.0949 µM): 45.2 nM
IC50 (second compound 0.3 µM): 32.1 nM
viability, T/C (second compound 0.000949 µM, first compound 0.00316 µM): 101%
viability, T/C (second compound 0.000949 µM, first compound 0.01 µM): 89.9%
viability, T/C [1]: 106%
viability, T/C [2]: 77.7%
viability, T/C [3]: 74.2%
viability, T/C [4]: 36.2%
viability, T/C (second compound 0.003 µM, first compound 0.00316 µM): 92%
viability, T/C (second compound 0.003 µM, first compound 0.01 µM): 90.8%
viability, T/C [5]: 94.7%
viability, T/C [6]: 74.5%
viability, T/C [7]: 75.5%
viability, T/C [8]: 32.2%
viability, T/C (second compound 0.00949 µM, first compound 0.00316 µM): 83.8%
viability, T/C (second compound 0.00949 µM, first compound 0.01 µM): 96.2%
viability, T/C [9]: 87.8%
viability, T/C [10]: 82.5%
viability, T/C [11]: 37%
viability, T/C [12]: 22.6%
viability, T/C (second compound 0.03 µM, first compound 0.00316 µM): 87.3%
viability, T/C (second compound 0.03 µM, first compound 0.01 µM): 79.3%
viability, T/C [13]: 76.2%
viability, T/C [14]: 54.2%
viability, T/C [15]: 29.9%
viability, T/C [16]: 15.5%
viability, T/C (second compound 0.0949 µM, first compound 0.00316 µM): 97.5%
viability, T/C (second compound 0.0949 µM, first compound 0.01 µM): 93%
viability, T/C [17]: 52.5%
viability, T/C [18]: 34.6%
viability, T/C [19]: 21.1%
viability, T/C [20]: 11%
viability, T/C (second compound 0.3 µM, first compound 0.00316 µM): 93.1%
viability, T/C (second compound 0.3 µM, first compound 0.01 µM): 76.5%
viability, T/C [21]: 52%
viability, T/C [22]: 23.7%
viability, T/C [23]: 19.7%
viability, T/C [24]: 10.4%
